Results as given in the supplement of paper PMC10307832.

What was measured:
Experiment in all cases: relative viability (nuclei count vs DMSO), 5 days (fraction); higher = more cells survive
Bortezomib + Vorinostat = compound: CC(C)C[C@H](NC(=O)[C@H](Cc1ccccc1)NC(=O)c1cnccn1)B(O)O [Bortezomib] + O=C(CCCCCCC(=O)Nc1ccccc1)NO [Vorinostat] (partner 1 µM)
In short: (§1)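 After 5 days of treatment, lung cancer cells in 1536-well plates were fixed and stained in a single step (final 0.05% Triton X-100, 1% formaldehyde, 1 ug/ml Hoechst) and their nuclei counted on 4× images. Treatment had been applied by pin tool the day after seeding as one drug alone or as a fixed anchor-drug dose with five library-drug doses (not always all listed) in √10 steps. Relative viability is the nuclei count of treated wells divided by that of vehicle wells, and values are medians of duplicate plates.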

Bortezomib + Palbociclib = compound: CC(C)C[C@H](NC(=O)[C@H](Cc1ccccc1)NC(=O)c1cnccn1)B(O)O [Bortezomib] + CC(=O)c1c(C)c2cnc(Nc3ccc(N4CCNCC4)cn3)nc2n(C2CCCC2)c1=O [Palbociclib] (partner 0.5 µM)
In short: as §1

Obatoclax + Linsitinib = compound: COC1=CC(c2cc3ccccc3[nH]2)=N/C1=C\c1[nH]c(C)cc1C [Obatoclax] + C[C@]1(O)C[C@@H](c2nc(-c3ccc4ccc(-c5ccccc5)nc4c3)c3c(N)nccn32)C1 [Linsitinib] (partner 1 µM)
In short: as §1

[1] = compound: CC1=CC(=NN1)NC2=CC(=NC(=N2)/C=C/C3=CC=CC=C3)N4CCN(CC4)C + COc1cccc2cc(-c3nc([C@H]4CC[C@H](C(=O)O)CC4)n4ncnc(N)c34)[nH]c12 [OSI-027] (partner 0.5 µM)
In short: as §1

HOP-62
relative viability (Bortezomib + Vorinostat; first compound 0.0002 µM): 0.589
relative viability (Bortezomib + Vorinostat; first compound 0.000632 µM): 0.654
relative viability (Bortezomib + Vorinostat; first compound 0.002 µM): 0.6
relative viability (Bortezomib + Vorinostat; first compound 0.006325 µM): 0.131
relative viability (Bortezomib + Vorinostat; first compound 0.02 µM): 0.0601
relative viability (Bortezomib + Palbociclib; first compound 0.0002 µM): 0.437
relative viability (Bortezomib + Palbociclib; first compound 0.000632 µM): 0.492
relative viability (Bortezomib + Palbociclib; first compound 0.002 µM): 0.307
relative viability (Bortezomib + Palbociclib; first compound 0.006325 µM): 0.0611
relative viability (Bortezomib + Palbociclib; first compound 0.02 µM): 0.0516
relative viability (Obatoclax + Linsitinib; first compound 0.01 µM): 0.784
relative viability (Obatoclax + Linsitinib; first compound 0.03162 µM): 1.07
relative viability (Obatoclax + Linsitinib; first compound 0.1 µM): 0.94
relative viability (Obatoclax + Linsitinib; first compound 0.3162 µM): 1.13
relative viability (Obatoclax + Linsitinib; first compound 1 µM): 0.933
relative viability ([1]; first compound 0.08 µM): 0.875
relative viability ([1]; first compound 0.253 µM): 0.865
relative viability ([1]; first compound 0.8 µM): 0.861
relative viability ([1]; first compound 2.53 µM): 0.52
relative viability ([1]; first compound 8 µM): 0.38

LC-2-ad
relative viability (Bortezomib + Vorinostat; first compound 0.0002 µM): 0.74
relative viability (Bortezomib + Vorinostat; first compound 0.000632 µM): 0.68
relative viability (Bortezomib + Vorinostat; first compound 0.002 µM): 0.665
relative viability (Bortezomib + Vorinostat; first compound 0.006325 µM): 0.209
relative viability (Bortezomib + Vorinostat; first compound 0.02 µM): 0.185
relative viability (Bortezomib + Palbociclib; first compound 0.0002 µM): 0.534
relative viability (Bortezomib + Palbociclib; first compound 0.000632 µM): 0.499
relative viability (Bortezomib + Palbociclib; first compound 0.002 µM): 0.504
relative viability (Bortezomib + Palbociclib; first compound 0.006325 µM): 0.278
relative viability (Bortezomib + Palbociclib; first compound 0.02 µM): 0.161
relative viability (Obatoclax + Linsitinib; first compound 0.01 µM): 0.829
relative viability (Obatoclax + Linsitinib; first compound 0.03162 µM): 0.828
relative viability (Obatoclax + Linsitinib; first compound 0.1 µM): 0.906
relative viability (Obatoclax + Linsitinib; first compound 0.3162 µM): 0.688
relative viability (Obatoclax + Linsitinib; first compound 1 µM): 0.434
relative viability ([1]; first compound 0.08 µM): 0.808
relative viability ([1]; first compound 0.253 µM): 0.867
relative viability ([1]; first compound 0.8 µM): 0.753
relative viability ([1]; first compound 2.53 µM): 0.336
relative viability ([1]; first compound 8 µM): 0.184

LCLC-97TM1
relative viability (Bortezomib + Vorinostat; first compound 0.0002 µM): 0.615
relative viability (Bortezomib + Vorinostat; first compound 0.000632 µM): 0.695
relative viability (Bortezomib + Vorinostat; first compound 0.002 µM): 0.748
relative viability (Bortezomib + Vorinostat; first compound 0.006325 µM): 0.148
relative viability (Bortezomib + Vorinostat; first compound 0.02 µM): 0.0598
relative viability (Bortezomib + Palbociclib; first compound 0.0002 µM): 0.235
relative viability (Bortezomib + Palbociclib; first compound 0.000632 µM): 0.183
relative viability (Bortezomib + Palbociclib; first compound 0.002 µM): 0.12
relative viability (Bortezomib + Palbociclib; first compound 0.006325 µM): 0.0721
relative viability (Bortezomib + Palbociclib; first compound 0.02 µM): 0.0639
relative viability (Obatoclax + Linsitinib; first compound 0.01 µM): 0.166
relative viability (Obatoclax + Linsitinib; first compound 0.03162 µM): 0.224
relative viability (Obatoclax + Linsitinib; first compound 0.1 µM): 0.182
relative viability (Obatoclax + Linsitinib; first compound 0.3162 µM): 0.163
relative viability (Obatoclax + Linsitinib; first compound 1 µM): 0.179
relative viability ([1]; first compound 0.08 µM): 0.427
relative viability ([1]; first compound 0.253 µM): 0.335
relative viability ([1]; first compound 0.8 µM): 0.564
relative viability ([1]; first compound 2.53 µM): 0.192
relative viability ([1]; first compound 8 µM): 0.2

LCLC-103H
relative viability (Bortezomib + Vorinostat; first compound 0.0002 µM): 0.791
relative viability (Bortezomib + Vorinostat; first compound 0.000632 µM): 0.773
relative viability (Bortezomib + Vorinostat; first compound 0.002 µM): 0.827
relative viability (Bortezomib + Vorinostat; first compound 0.006325 µM): 0.359
relative viability (Bortezomib + Vorinostat; first compound 0.02 µM): 0.236
relative viability (Bortezomib + Palbociclib; first compound 0.0002 µM): 0.475
relative viability (Bortezomib + Palbociclib; first compound 0.000632 µM): 0.462
relative viability (Bortezomib + Palbociclib; first compound 0.002 µM): 0.419
relative viability (Bortezomib + Palbociclib; first compound 0.006325 µM): 0.324
relative viability (Bortezomib + Palbociclib; first compound 0.02 µM): 0.254
relative viability (Obatoclax + Linsitinib; first compound 0.01 µM): 0.953
relative viability (Obatoclax + Linsitinib; first compound 0.03162 µM): 1.02
relative viability (Obatoclax + Linsitinib; first compound 0.1 µM): 1.13
relative viability (Obatoclax + Linsitinib; first compound 0.3162 µM): 1
relative viability (Obatoclax + Linsitinib; first compound 1 µM): 1.23
relative viability ([1]; first compound 0.08 µM): 0.504
relative viability ([1]; first compound 0.253 µM): 0.486
relative viability ([1]; first compound 0.8 µM): 0.463
relative viability ([1]; first compound 2.53 µM): 0.378
relative viability ([1]; first compound 8 µM): 0.332
